Measurements: US20190275012A9, “SUBSTITUTED THIAZOLO-PYRIDINE COMPOUNDS AS MALT1 INHIBITORS” (Lupin Limited, priority 2016, published 2019)
pIC50: −log10 of the molar value.

Experiments:
OCI-Ly-10 cells = test: Anticancer assay (14 days), cell viability by CCK-8; assay type: cell-based; conditions: Homo sapiens, OCI-Ly10, 336 h, 14 days treatment, fresh treatment every 5th day, CCK-8 viability, read-out: Ly-10 (14d) inhibition IC50
Protocol: OCI-Ly-10 cells (UHN, Canada) seeded in culture media (IMDM+20% FBS) in 96-well plates were treated with various concentrations of the test compounds. Cells were treated for a period of 14 days (13-15 days depending on the confluency of cells) with fresh treatments every 5th day. After the first treatment, for all subsequent treatments, the cells were centrifuged, the spent media was removed and fresh media containing the test compound was added. Cell viability was assessed using CCK-8 kit (Dojindo Laboratories, China) as per manufacturer's instructions. Plates were read in colorimeter and absorbance was detected. (Detection at 450 nm; Background correction at 650 nm). % inhibition was calculated relative to the samples containing media with 0.1% DMSO alone as per the following formula

[1] = system: NF-kB transcriptional activity in HEK-293-NF-kB-Luc cell line overexpressing MALT1; test: NF-kB reporter assay (luciferase, MALT1 stably overexpressed); assay type: cell-based; conditions: Homo sapiens, 24 h, HEK-293-NF-kB-Luc cells stably overexpressing MALT1, 24 h treatment, Bright Glo luminescence; read-out: NF-kB inhibition IC50
Summary of the method: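 Inhibition of NF-κB activity was expressed relative to 0.1% DMSO wells, from luminescence after 10 min Bright Glo at ambient temperature. Compounds had been applied for 24 h to adhered MALT1-overexpressing HEK-293 NF-κB luciferase reporter cells.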

full length MALT1 enzyme = target: T1, full length MALT1 enzyme (Homo sapiens, UniProt Q9UDY8); test: MALT1 biochemical assay (fluorescence based, Ac-Leu-Arg-Ser-Arg-AMC cleavage); conditions: full length MALT1 protein, 2 h pre-incubation at RT, tetrapeptide substrate Ac-Leu-Arg-Ser-Arg-AMC, read-out: Malt 1 inhibition IC50
T1 construct: a fluorescence based assay with full length MALT1 enzyme
T1 sequence (Q9UDY8 1-824): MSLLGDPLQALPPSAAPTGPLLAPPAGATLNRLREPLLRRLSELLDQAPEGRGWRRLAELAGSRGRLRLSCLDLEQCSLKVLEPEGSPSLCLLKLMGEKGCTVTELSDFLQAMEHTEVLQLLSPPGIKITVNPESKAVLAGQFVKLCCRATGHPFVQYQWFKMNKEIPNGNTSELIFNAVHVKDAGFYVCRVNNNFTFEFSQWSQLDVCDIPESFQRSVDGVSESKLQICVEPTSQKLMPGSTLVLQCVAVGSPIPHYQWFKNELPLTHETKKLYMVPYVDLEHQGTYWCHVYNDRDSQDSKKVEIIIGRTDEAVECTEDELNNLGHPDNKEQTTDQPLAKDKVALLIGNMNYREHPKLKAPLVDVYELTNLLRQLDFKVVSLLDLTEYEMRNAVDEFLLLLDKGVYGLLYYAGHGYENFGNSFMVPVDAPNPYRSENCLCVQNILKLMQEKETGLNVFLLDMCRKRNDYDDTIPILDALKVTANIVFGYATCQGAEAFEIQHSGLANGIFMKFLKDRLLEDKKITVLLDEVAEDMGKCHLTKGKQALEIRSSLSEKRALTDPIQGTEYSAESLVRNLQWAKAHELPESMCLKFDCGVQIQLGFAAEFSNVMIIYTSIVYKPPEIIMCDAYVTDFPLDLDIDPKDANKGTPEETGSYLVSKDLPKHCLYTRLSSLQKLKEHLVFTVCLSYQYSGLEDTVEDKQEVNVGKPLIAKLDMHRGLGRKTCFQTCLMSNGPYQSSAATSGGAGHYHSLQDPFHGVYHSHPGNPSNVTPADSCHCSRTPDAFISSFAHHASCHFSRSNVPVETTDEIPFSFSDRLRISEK
Summary of the method: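 Full-length MALT1 (100-300 ng/well) was pre-incubated with compound for 2 h at RT, then 100 μM Ac-LRSR-AMC was added for 4-12 h. Buffer was 50 mM MES, 150 mM NaCl, 0.1% CHAPS, 1 M ammonium citrate, 10 mM DTT, pH 7, with 0.5% DMSO. IC50 was derived from AMC fluorescence (ex 360/em 460 nm).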

Compound | pIC50 (OCI-Ly-10 cells) | pIC50 [1] | pIC50 (full length MALT1 enzyme)
CCOC(C)c1c(NC(=O)Nc2cnc(-n3nccn3)c(Cl)c2)cnc2sc(C)nc12 (racemic) [Compound 164, 1-(5-Chloro-6-(2H-1,2,3-triazol-2-yl)pyridin-3-yl)-3-(7-(1-ethoxyethyl)-2-methylthiazolo[5,4-b]pyridin-6-yl)urea] | 6.60 to 7.00 | 7.00 to 9.00 | 
COCC1CCCN(c2c(NC(=O)Nc3cnc(OC)c(Cl)c3)cnc3sc(C)nc23)C1 (single isomer, unassigned) [Compound 51b, 1-(5-chloro-6-methoxypyridin-3-yl)-3-(7-(3-(methoxymethyl)piperidin-1-yl)-2-methylthiazolo[5,4-b]pyridin-6-yl)urea] | 5.82 to 6.30 |  | 
COc1nc(-n2ccnn2)c(Cl)cc1NC(=O)Nc1cnc2sc(C)nc2c1C(C)OC (single isomer, unassigned) [Compound 91b, 1-(5-Chloro-2-methoxy-6-(1H-1,2,3-triazol-1-yl)pyridin-3-yl)-3-(7-(1-methoxyethyl)-2-methylthiazolo[5,4-b]pyridin-6-yl)urea] | 7.00 to 7.59 |  | 
Cc1nc2c(C3CCCO3)c(NC(=O)Nc3cnc(-n4nccn4)c(Cl)c3)cnc2s1 (single isomer, unassigned) [Compound 136b, 1-(5-Chloro-6-(2H-1,2,3-triazol-2-yl)pyridin-3-yl)-3-(2-methyl-7-(tetrahydrofuran-2-yl)thiazolo[5,4-b]pyridin-6-yl)urea] | 6.60 to 7.00 | 7.00 to 9.00 | 
COC(C)c1c(NC(=O)Nc2ccc(-c3nnco3)c(Cl)c2)cnc2sc(C)nc12 (single isomer, unassigned) [Compound 203b, (S) or (R)-1-(3-Chloro-4-(1,3,4-oxadiazol-2-yl)phenyl)-3-(7-(1-methoxyethyl)-2-methylthiazolo[5,4-b]pyridin-6-yl)urea] | 7.00 to 7.59 | 7.00 to 9.00 | 
COC(C)c1c(NC(=O)Nc2cnc(-n3nccn3)c(C(F)F)c2)cnc2sc(C)nc12 (single isomer, unassigned) [Compound 205b, (S) or (R)-1-(5-(Difluoromethyl)-6-(2H-1,2,3-triazol-2-yl)pyridin-3-yl)-3-(7-(1-methoxyethyl)-2-methylthiazolo[5,4-b]pyridin-6-yl)urea] | 6.60 to 7.00 | 6.30 to 7.00 | 
COC(C)c1c(NC(=O)Nc2cnc(-n3ccnn3)c(C(F)F)c2)cnc2sc(C)nc12 (single isomer, unassigned) [Compound 206b, (S) or (R)-1-(5-(Difluoromethyl)-6-(1H-1,2,3-triazol-1-yl)pyridin-3-yl)-3-(7-(1-methoxyethyl)-2-methylthiazolo[5,4-b]pyridin-6-yl)urea] | 6.60 to 7.00 | 7.00 to 9.00 | 
COC(C)c1c(NC(=O)Nc2ccc(-n3nccn3)c(C#N)c2)cnc2sc(C)nc12 (single isomer, unassigned) [Compound 208b, (S) or (R)-1-(3-Cyano-4-(2H-1,2,3-triazol-2-yl)phenyl)-3-(7-(1-methoxyethyl)-2-methylthiazolo[5,4-b]pyridin-6-yl)urea] | 6.60 to 7.00 |  | 
CCOc1nc(-n2nccn2)c(C(F)(F)F)cc1NC(=O)Nc1cnc2sc(C)nc2c1C(C)OC (single isomer, unassigned) [Compound 221, (S) or (R)-1-(2-ethoxy-6-(2H-1,2,3-triazol-2-yl)-5-(trifluoromethyl)pyridin-3-yl)-3-(7-(1-methoxyethyl)-2-methylthiazolo[5,4-b]pyridin-6-yl)urea] | 7.00 to 7.59 | 7.00 to 9.00 | 
COCCc1c(NC(=O)Nc2cnc(OC)c(Cl)c2)cnc2sc(C)nc12 [Compound 33, 1-(5-Chloro-6-methoxypyridin-3-yl)-3-(7-(2-methoxyethyl)-2-methylthiazolo[5,4-b]pyridin-6-yl)urea] | 5.82 to 6.30 |  | 
COCC(OC)c1c(NC(=O)Nc2cnc(OC)c(Cl)c2)cnc2sc(C)nc12 (stereo not drawn) [Compound 34a, 1-(5-chloro-6-methoxypyridin-3-yl)-3-(7-(1,2-dimethoxyethyl)-2-methylthiazolo[5,4-b]pyridin-6-yl)urea] | 6.60 to 7.00 | 6.30 to 7.00 | 
COCC(CN(C)c1c(NC(=O)Nc2cnc(-n3nccn3)c(Cl)c2)cnc2sc(C)nc12)OC (stereo not drawn) [Compound 43, 1-(5-Chloro-6-(2H-1,2,3-triazol-2-yl)pyridin-3-yl)-3-(7-((2,3-dimethoxypropyl)(methyl)amino)-2-methylthiazolo[5,4-b]pyridin-6-yl)urea] | 7.00 to 7.59 |  | 
COCCN(C)c1c(NC(=O)Nc2cnc(OC)c(Cl)c2)cnc2sc(C)nc12 [Compound 45, 1-(5-Chloro-6-methoxypyridin-3-yl)-3-(7-((2-methoxyethyl)(methyl)amino)-2-methylthiazolo[5,4-b]pyridin-6-yl)urea] | 5.82 to 6.30 |  | 
Cc1nc2c(C3CC3)c(NC(=O)Nc3cnc(-n4ccnn4)c(Cl)c3)cnc2s1 [Compound 61, 1-(5-Chloro-6-(1H-1,2,3-triazol-1-yl)pyridin-3-yl)-3-(7-cyclopropyl-2-methylthiazolo[5,4-b]pyridin-6-yl)urea] | 5.82 to 6.30 |  | 
Cc1nc2c(C(C3CC3)N(C)C)c(NC(=O)Nc3cnc(-n4nccn4)c(C(F)(F)F)c3)cnc2s1 (stereo not drawn) [Compound 76a, 1-(6-(2H-1,2,3-Triazol-2-yl)-5-(trifluoromethyl)pyridin-3-yl)-3-(7-(cyclopropyl(dimethylamino)methyl)-2-methylthiazolo[5,4-b]pyridin-6-yl)urea] | 6.60 to 7.00 |  | 
Cc1nc2c(C3CC3)c(NC(=O)Nc3cc(Cl)c(-n4ccnn4)c(Cl)c3)cnc2s1 [Compound 170, 1-(7-Cyclopropyl-2-methylthiazolo[5,4-b]pyridin-6-yl)-3-(3,5-dichloro-4-(1H-1,2,3-triazol-1-yl)phenyl)urea] |  | 6.30 to 7.00 | 7.30 to 9.00
Cc1ncn(-c2ccc(NC(=O)Nc3cnc4sc(C)nc4c3C3CC3)cc2C#N)n1 [Compound 171, 1-(3-Cyano-4-(3-methyl-1H-1,2,4-triazol-1-yl)phenyl)-3-(7-eyelopropyl-2-methylthiazolo[5,4-b]pyridin-6-yl)urea] |  | 6.30 to 7.00 | 7.00 to 7.29
Cc1nc2c(C3CC3)c(NC(=O)Nc3ccc(-n4ncnc4C)c(C#N)c3)cnc2s1 [Compound 172, 1-(3-Cyano-4-(5-methyl-1H-1,2,4-triazol-1-yl)phenyl)-3-(7-eyelopropyl-2-methylthiazolo[5,4-b]pyridin-6-yl)urea] |  | 5.82 to 6.30 | 7.00 to 7.29
COCc1c(NC(=O)Nc2cnc(-n3nccn3)c(Cl)c2)cnc2sc(C)nc12 [Compound 176, 1-(5-Chloro-6-(2H-1,2,3-triazol-2-yl)pyridin-3-yl)-3-(7-(metdoxymethyl)-2-methylthiazolo[5,4-b]pyridin-6-yl)urea] |  | 6.30 to 7.00 | 7.30 to 9.00
Cc1nc2c(C3(C)CC3)c(NC(=O)Nc3ccc(-n4nccn4)c(Cl)c3)cnc2s1 [Compound 179, 1-(3-Chloro-4-(2H-1,2,3-triazol-2-yl)phenyl)-3-(2-methyl-7-(1-methylcyclopropyl)thiazolo[5,4-b]pyridin-6-yl)urea] |  | 7.00 to 9.00 | 7.30 to 9.00
Cc1nc2c(C(C)C)c(NC(=O)Nc3cnc(-n4nccn4)c(C(F)(F)F)c3)cnc2s1 [Compound 191, 1-(6-(2H-1,2,3-triazol-2-yl)-5-(trifluoromethyl)pyridin-3-yl)-3-(7-isopropyl-2-methylthiazolo[5,4-b]pyridin-6-yl)urea] |  | 7.00 to 9.00 | 7.30 to 9.00
Cc1nc2c(C3CC3)c(NC(=O)Nc3cc(Cl)cnc3OCCN(C)C)cnc2s1 [Compound 195, 1-(5-Chloro-2-(2-(dimethylamino)ethoxy)pyridin-3-yl)-3-(7-cyclopropyl-2-methylthiazolo[5,4-b]pyridin-6-yl)urea] |  | 7.00 to 9.00 | 7.00 to 7.29
